# Assay results as given in ChEMBL document CHEMBL1201862, “PubChem BioAssay data set” (2004).
#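 Tested at 5 concentrations; 48 h exposure; 96-well plates; endpoints linearly interpolated, else capped at highest concentration. The concentration for 50% growth inhibition is given as GI50.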 Active and inactive are the calls of the source. Rule as the data show it: active = GI50 up to about 1.1 µM and inactive = higher.
# How the values were obtained:
# Assay in all cases: NCI-60 cell line screen, 48 h
# SF-268 = tested on: SF-268
# OVCAR-4 = tested on: OVCAR-4
# KM12 = tested on: KM12
# SF-539 = tested on: SF-539
# SR = tested on: SR
# ACHN = tested on: ACHN
# HCT-116 = tested on: HCT-116
# SN12C = tested on: SN12C
# RXF 393 = tested on: RXF 393
# K562 = tested on: K562
# MDA-MB-231 = tested on: MDA-MB-231
# COLO 205 = tested on: COLO 205
# CAKI-1 = tested on: CAKI-1
# SK-OV-3 = tested on: SK-OV-3
# BT-549 = tested on: BT-549
# A549 = tested on: A549
# SK-MEL-5 = tested on: SK-MEL-5
# CCRF-CEM = tested on: CCRF-CEM
# UO-31 = tested on: UO-31
# DU-145 = tested on: DU-145
# MDA-MB-435 = tested on: MDA-MB-435
# NCI-H522 = tested on: NCI-H522
# HOP-92 = tested on: HOP-92
# EKVX = tested on: EKVX
# A498 = tested on: A498
# HOP-62 = tested on: HOP-62
# HCC 2998 = tested on: HCC 2998
# M14 = tested on: M14
# OVCAR-5 = tested on: OVCAR-5
# NCI-H226 = tested on: NCI-H226
# PC-3 = tested on: PC-3
# IGROV-1 = tested on: IGROV-1
# HL-60 = tested on: HL-60
# HT-29 = tested on: HT-29
# UACC-62 = tested on: UACC-62
# SF-295 = tested on: SF-295
# OVCAR-3 = tested on: OVCAR-3
# T47D = tested on: T47D
# RPMI-8226 = tested on: RPMI-8226
# NCI-H23 = tested on: NCI-H23
# SNB-19 = tested on: SNB-19
# 786-0 = tested on: 786-0
# SK-MEL-28 = tested on: SK-MEL-28
# SW-620 = tested on: SW-620
# SNB-75 = tested on: SNB-75
# MCF7 = tested on: MCF7
# U-251 = tested on: U-251
# TK-10 = tested on: TK-10
# MOLT-4 = tested on: MOLT-4
# MDA-N = tested on: MDA-N
# OVCAR-8 = tested on: OVCAR-8
# NCI/ADR-RES = tested on: NCI/ADR-RES
# UACC-257 = tested on: UACC-257
# HCT-15 = tested on: HCT-15
# LOX IMVI = tested on: LOX IMVI
# NCI-H460 = tested on: NCI-H460
# SK-MEL-2 = tested on: SK-MEL-2
# Hs-578T = tested on: Hs-578T
# Malme-3M = tested on: Malme-3M
structure (smiles),measurement,setting,value
CC(C)(Br)C(Br)CCC1(C(Br)CBr)CO1 (stereo not drawn),GI50,SF-268,> 10 µM (inactive)
same,GI50,OVCAR-4,> 10 µM (inactive)
same,GI50,KM12,> 10 µM (inactive)
same,GI50,SF-539,> 10 µM (inactive)
same,GI50,SR,> 10 µM (inactive)
same,GI50,ACHN,> 10 µM (inactive)
same,GI50,HCT-116,> 10 µM (inactive)
same,GI50,SN12C,> 10 µM (inactive)
same,GI50,RXF 393,> 10 µM (inactive)
same,GI50,K562,> 10 µM (inactive)
same,GI50,MDA-MB-231,> 10 µM (inactive)
same,GI50,COLO 205,> 10 µM (inactive)
same,GI50,CAKI-1,> 10 µM (inactive)
same,GI50,SK-OV-3,> 10 µM (inactive)
same,GI50,BT-549,> 10 µM (inactive)
same,GI50,A549,> 10 µM (inactive)
same,GI50,SK-MEL-5,> 10 µM (inactive)
same,GI50,CCRF-CEM,> 10 µM (inactive)
same,GI50,UO-31,> 10 µM (inactive)
same,GI50,DU-145,> 10 µM (inactive)
same,GI50,MDA-MB-435,> 10 µM (inactive)
same,GI50,NCI-H522,> 10 µM (inactive)
same,GI50,HOP-92,> 10 µM (inactive)
same,GI50,EKVX,> 10 µM (inactive)
same,GI50,A498,> 10 µM (inactive)
same,GI50,HOP-62,> 10 µM (inactive)
same,GI50,HCC 2998,> 10 µM (inactive)
same,GI50,M14,> 10 µM (inactive)
same,GI50,OVCAR-5,> 10 µM (inactive)
same,GI50,NCI-H226,> 10 µM (inactive)
same,GI50,PC-3,> 10 µM (inactive)
same,GI50,IGROV-1,> 10 µM (inactive)
same,GI50,HL-60,> 10 µM (inactive)
same,GI50,HT-29,> 10 µM (inactive)
same,GI50,UACC-62,> 10 µM (inactive)
same,GI50,SF-295,> 10 µM (inactive)
same,GI50,OVCAR-3,> 10 µM (inactive)
same,GI50,T47D,> 10 µM (inactive)
same,GI50,RPMI-8226,> 10 µM (inactive)
same,GI50,NCI-H23,> 10 µM (inactive)
same,GI50,SNB-19,> 10 µM (inactive)
same,GI50,786-0,> 10 µM (inactive)
same,GI50,SK-MEL-28,> 10 µM (inactive)
same,GI50,SW-620,> 10 µM (inactive)
same,GI50,SNB-75,> 10 µM (inactive)
same,GI50,MCF7,> 10 µM (inactive)
same,GI50,U-251,> 10 µM (inactive)
same,GI50,TK-10,> 10 µM (inactive)
same,GI50,MOLT-4,> 10 µM (inactive)
same,GI50,MDA-N,> 10 µM (inactive)
same,GI50,OVCAR-8,> 10 µM (inactive)
COC(=O)/C=C1\C(CO[Si](C)(C)C(C)(C)C)OC(n2ccc(=O)[nH]c2=O)C1O (stereo not drawn),GI50,SF-268,0.367 µM (active)
same,GI50,OVCAR-4,15 µM (inactive)
same,GI50,KM12,7.06 µM (inactive)
same,GI50,SF-539,15.5 µM (inactive)
same,GI50,SR,6.98 µM (inactive)
same,GI50,ACHN,12.6 µM (inactive)
same,GI50,HCT-116,4.4 µM (inactive)
same,GI50,SN12C,8.57 µM (inactive)
same,GI50,RXF 393,9.84 µM (inactive)
same,GI50,K562,5.4 µM (inactive)
same,GI50,MDA-MB-231,34.5 µM (inactive)
same,GI50,COLO 205,4.26 µM (inactive)
same,GI50,CAKI-1,22.6 µM (inactive)
same,GI50,BT-549,18.7 µM (inactive)
same,GI50,A549,6.35 µM (inactive)
same,GI50,SK-MEL-5,6.28 µM (inactive)
same,GI50,CCRF-CEM,6.27 µM (inactive)
same,GI50,UO-31,9.89 µM (inactive)
same,GI50,DU-145,7.06 µM (inactive)
same,GI50,MDA-MB-435,8.13 µM (inactive)
same,GI50,HOP-92,15.2 µM (inactive)
same,GI50,EKVX,8.63 µM (inactive)
same,GI50,A498,17.5 µM (inactive)
same,GI50,HOP-62,13.2 µM (inactive)
same,GI50,HCC 2998,7.71 µM (inactive)
same,GI50,M14,17.5 µM (inactive)
same,GI50,NCI/ADR-RES,10.4 µM (inactive)
same,GI50,UACC-257,4.73 µM (inactive)
same,GI50,HCT-15,6.71 µM
same,GI50,OVCAR-5,16.5 µM (inactive)
same,GI50,LOX IMVI,6.41 µM (inactive)
same,GI50,NCI-H226,5.58 µM (inactive)
same,GI50,PC-3,3.47 µM (inactive)
same,GI50,IGROV-1,20 µM (inactive)
same,GI50,HT-29,7.33 µM (inactive)
same,GI50,UACC-62,13.7 µM (inactive)
same,GI50,SF-295,9.82 µM (inactive)
same,GI50,OVCAR-3,21.6 µM (inactive)
same,GI50,T47D,3.63 µM (inactive)
same,GI50,RPMI-8226,6.07 µM (inactive)
same,GI50,NCI-H23,7.08 µM (inactive)
same,GI50,SNB-19,18.5 µM (inactive)
same,GI50,786-0,6.04 µM (inactive)
same,GI50,SK-MEL-28,6.25 µM (inactive)
same,GI50,SW-620,9.73 µM (inactive)
same,GI50,SNB-75,12.1 µM (inactive)
same,GI50,MCF7,4.91 µM (inactive)
same,GI50,U-251,7.8 µM (inactive)
same,GI50,TK-10,24.2 µM (inactive)
same,GI50,NCI-H460,5.9 µM (inactive)
same,GI50,MOLT-4,8.49 µM (inactive)
same,GI50,SK-MEL-2,6.25 µM (inactive)
same,GI50,MDA-N,7.67 µM (inactive)
same,GI50,OVCAR-8,8.95 µM (inactive)
Cc1cc2ccccc2n2c1nc1ccccc12,GI50,SF-268,> 100 µM (inactive)
same,GI50,KM12,> 100 µM (inactive)
same,GI50,SF-539,> 100 µM (inactive)
same,GI50,SR,> 100 µM (inactive)
same,GI50,ACHN,> 100 µM (inactive)
same,GI50,HCT-116,> 100 µM (inactive)
same,GI50,SN12C,> 100 µM (inactive)
same,GI50,RXF 393,> 100 µM (inactive)
same,GI50,K562,> 100 µM (inactive)
same,GI50,COLO 205,> 100 µM (inactive)
same,GI50,SK-OV-3,> 100 µM (inactive)
same,GI50,BT-549,> 100 µM (inactive)
same,GI50,A549,> 100 µM (inactive)
same,GI50,SK-MEL-5,> 100 µM (inactive)
same,GI50,CCRF-CEM,> 100 µM (inactive)
same,GI50,UO-31,> 100 µM (inactive)
same,GI50,DU-145,> 100 µM (inactive)
same,GI50,MDA-MB-435,> 100 µM (inactive)
same,GI50,HOP-92,> 100 µM (inactive)
same,GI50,EKVX,> 100 µM (inactive)
same,GI50,A498,15.2 µM (inactive)
same,GI50,HOP-62,> 100 µM (inactive)
same,GI50,HCC 2998,> 100 µM (inactive)
same,GI50,M14,> 100 µM (inactive)
same,GI50,NCI/ADR-RES,> 100 µM (inactive)
same,GI50,UACC-257,> 100 µM (inactive)
same,GI50,HCT-15,> 100 µM
same,GI50,OVCAR-5,> 100 µM (inactive)
same,GI50,NCI-H226,> 100 µM (inactive)
same,GI50,PC-3,> 100 µM (inactive)
same,GI50,IGROV-1,> 100 µM (inactive)
same,GI50,HL-60,> 100 µM (inactive)
same,GI50,HT-29,> 100 µM (inactive)
same,GI50,UACC-62,> 100 µM (inactive)
same,GI50,Hs-578T,> 100 µM (inactive)
same,GI50,SF-295,> 100 µM (inactive)
same,GI50,OVCAR-3,> 100 µM (inactive)
same,GI50,T47D,> 100 µM (inactive)
same,GI50,RPMI-8226,> 100 µM (inactive)
same,GI50,NCI-H23,> 100 µM (inactive)
same,GI50,SNB-19,> 100 µM (inactive)
same,GI50,Malme-3M,> 100 µM (inactive)
same,GI50,786-0,> 100 µM (inactive)
same,GI50,SK-MEL-28,> 100 µM (inactive)
same,GI50,SW-620,> 100 µM (inactive)
same,GI50,SNB-75,> 100 µM (inactive)
same,GI50,MCF7,> 100 µM (inactive)
same,GI50,U-251,> 100 µM (inactive)
same,GI50,TK-10,> 100 µM (inactive)
same,GI50,NCI-H460,> 100 µM (inactive)
same,GI50,MOLT-4,> 100 µM (inactive)
same,GI50,MDA-N,> 100 µM (inactive)
same,GI50,OVCAR-8,> 100 µM (inactive)
